Data published in patent US10308607B2, “Fucosidase inhibitors” (HORIZON ORPHAN LLC, priority 2015, dated 2019).
Values joined by “and” are separate entries in the source; they are usually repeats but may differ in a detail not shown here. Identical values can stand only once. Like-named read-outs stand apart in the source and are kept apart here.

Legend:
[1] = Multiplexed cytotoxicity assay; type: cell-based, human; conditions: human, HepG2 cells (liver carcinoma), read-out: Cytotoxic EC50
Description: (§1) To assess the cytotoxicity of compound II (see Example 2) in cancer and normal cells, the cells were grown in RPMI1640, 10% FBS, 2 mM L-alanyl-L-Glutamine, 1 mM Na Pyruvate or a special medium in a humidified atmosphere of 5% CO2 at 37° C. Cells were seeded into 384-well plates and incubated in a humidified atmosphere of 5% CO2 at 37° C. Compound II was added 24 hours post cell seeding. At the same time, a time zero untreated cell plate was generated.
(§2) After a 72 hour incubation period, cells were fixed and stained with fluorescently labeled antibodies and nuclear dye to allow visualization of nuclei, apoptotic cells and mitotic cells. Apoptotic cells were detected using an anti-active caspase-3 antibody. Mitotic cells were detected using an anti phospho-histone-3 antibody.
(§3) Compound II was serially diluted 3.16-fold and assayed over 9 concentrations. Automated fluorescence microscopy was carried out using a GE Healthcare IN Cell Analyzer 1000, and images were collected with a 4× objective.
(§4) Twelve bit tiff images were acquired using the InCell Analyzer 1000 3.2 and analyzed with Developer Toolbox 1.6 software. EC50 and IC50 values were calculated using nonlinear regression to fit data to a sigmoidal 4 point, 4 parameter One-Site dose response model, where: y (fit)=A+[(B−A)/(1+((C/x)^D))]. […]

[2] = test system: HepG2; assay: Multiplexed cytotoxicity assay; type: cell-based, human; conditions: HepG2, liver carcinoma, 72 hour
Description: as §1, §2, §3, §4

[3] = test system: HepG2 cells; assay: Metabolic labeling with tagged-fucose, flow cytometry; type: cell-based, human
Description: Perturbations in glycoprotein metabolism were assayed by growing HepG2 cells without fucosidase inhibitors, or with compound II, III, or IV (see Example 2) for 24 hours, and then adding (3S,4R,5R,6S)-6-ethynyltetrahydro-2H-pyran-2,3,4,5-tetrayl tetra acetate, a per-acetylated analog of fucose containing an alkyne moiety in place of the 5′-methyl group (Click-iT™ Fucose Alkyne, Molecular Probes, Eugene, Oreg.) for an additional 48 hours. Cells were fixed, permeabilized, washed, and stained with Alexa Fluor 488 Azide to orthogonally label glycoproteins incorporating the fucose analog. Cells were then analyzed for fluorescence using a Guava 6HT-2L flow cytometer (ThermoFisher).

[4] = test system: K562; assay: Multiplexed cytotoxicity assay; type: cell-based; conditions: K562, blood leukemia, 72 hour
Description: as §1, §2, §3
(§5) Twelve bit tiff images were acquired using the InCell Analyzer 1000 3.2 and analyzed with Developer Toolbox 1.6 software. EC50 and IC50 values were calculated using nonlinear regression to fit data to a sigmoidal 4 point, 4 parameter One-Site dose response model, where: y (fit)=A+[(B−A)/(1+((C/x)^D))]. Curve-fitting, EC50/IC50 calculations and report generation are performed using a custom data reduction engine MathIQ based software (AIM).
(§6) The multiplexed cytotoxicity assay uses a cell image based analysis technique where cells are fixed and stained with fluorescently labeled antibodies and nuclear dye to visualize nuclei, and apoptotic and mitotic cells. Apoptotic cells are detected using an anti-active caspase-3 antibody. Mitotic cells are detected using an anti phospho-histone-3 antibody. Cell proliferation is measured by the signal intensity of the incorporated nuclear dye. The cell proliferation assay output is referred to as the relative cell count. To determine the cell proliferation end point, the cell proliferation data output is transformed to percent of control (POC) using the following formula: POC=relative cell count(compound wells)/relative cell count(vehicle wells)×100.
(§7) Relative cell count IC50 is the test compound concentration at 50% of maximal possible response. A relative cell count EC50 is the test compound concentration at the curve inflection point or half the effective response (parameter C of the fitted curve solution). GI50 is the concentration needed to reduce the observed growth by half. This is the concentration that inhibits the growth midway between untreated cells and the number of cells seeded in the well (Time zero value).
(§8) The activated caspase-3 marker labels cells from early to late stage apoptosis. The output is shown as a fold increase of apoptotic cells over vehicle background normalized to the relative cell count in each well. Concentrations of test compound that cause a 5-fold induction in the caspase-3 signal indicates significant apoptosis induction. Wells with concentrations higher than the relative cell count IC95 are eliminated from the caspase3 induction analysis.
(§9) The phospho-histone-3 marker labels mitotic cells. The output is shown as a fold induction of mitotic cells over vehicle background normalized to the relative cell count in each well. When the fold induction of mitotic cell signal over background is ˜1, there is “no effect” on the cell cycle. Two or more fold increase in phospho-histone-3 signal over vehicle background indicates significant test compound induction of mitotic block.
(§10) Two or more fold decrease in the phospho-histone-3 signal may indicate G1/S block only when cytotoxicity levels are below the measured relative cell count IC95. […]

[5] = test system: HUMSC; assay: Multiplexed cytotoxicity assay; type: cell-based; conditions: normal mesenchymal stem, 72 hour
Description: as §1, §2, §3, §5, §6, §7, §8, §9, §10

[6] = test system: HUVEC; assay: Multiplexed cytotoxicity assay; type: cell-based; conditions: normal endothelium, 72 hour
Description: as §1, §2, §3, §5, §6, §7, §8, §9, §10

[7] = Multiplexed cytotoxicity assay; type: cell-based; conditions: human, read-out: Cytotoxic EC50
Description: as §1, §2, §3, §5, §6, §7, §8, §9, §10

[8] = test system: NHDF; assay: Multiplexed cytotoxicity assay; type: cell-based; conditions: normal skin, 72 hour
Description: as §1, §2, §3, §5, §6, §7, §8, §9, §10

[9] = test system: HeLa; assay: Multiplexed cytotoxicity assay; type: cell-based; conditions: cervix carcinoma, 72 hour
Description: as §1, §2, §3, §5, §6, §7, §8, §9, §10

[10] = test system: SKOV3; assay: Multiplexed cytotoxicity assay; type: cell-based; conditions: SKOV3, ovary carcinoma, 72 hour
Description: as §1, §2, §3, §5, §6, §7, §8, §9, §10

[11] = test system: HRPTEpiC; assay: Multiplexed cytotoxicity assay; type: cell-based; conditions: normal renal, 72 hour
Description: as §1, §2, §3, §5, §6, §7, §8, §9, §10

[12] = Pharmacokinetics in mouse plasma; type: in vivo; conditions: for Conc. of cmpd II: individual animal
Description: To assess the pharmacokinetics of compound II (see Example 2) in mouse plasma, compound II was administered intravenously at a dosage of 1 mg/kg. Compound II concentration was measured at various time points up to 24 hours after administration, and the results are provided in Table 5.

Conc. of cmpd II ([12]; IV 1 mg/kg qdx1, 5 min): 247 ng/mL and 313 ng/mL and 259 ng/mL
Mean conc. of cmpd II ([12]; IV 1 mg/kg qdx1, 5 min): 273 ng/mL
Conc. of cmpd II ([12]; IV 1 mg/kg qdx1, 1 h): 28.7 ng/mL and 31.8 ng/mL and 34.3 ng/mL
Mean conc. of cmpd II ([12]; IV 1 mg/kg qdx1, 1 h): 31.6 ng/mL
Conc. of cmpd II ([12]; IV 1 mg/kg qdx1, 2 h): 8.58 ng/mL and 5.83 ng/mL and 9.10 ng/mL
Mean conc. of cmpd II ([12]; IV 1 mg/kg qdx1, 2 h): 7.84 ng/mL
Conc. of cmpd II ([12]; IV 1 mg/kg qdx1, 4 h): 2.76 ng/mL and 1.86 ng/mL and 3.36 ng/mL
Mean conc. of cmpd II ([12]; IV 1 mg/kg qdx1, 4 h): 2.66 ng/mL
Conc. of cmpd II ([12]; IV 1 mg/kg qdx1, 8 h): 1.56 ng/mL and 1.17 ng/mL and 1.57 ng/mL
Mean conc. of cmpd II ([12]; IV 1 mg/kg qdx1, 8 h): 1.43 ng/mL
Conc. of cmpd II ([12]; IV 1 mg/kg qdx1, 12 h): 1.04 ng/mL and 1.06 ng/mL and 2.04 ng/mL
Mean conc. of cmpd II ([12]; IV 1 mg/kg qdx1, 12 h): 1.38 ng/mL
Compound: C[C@@H]1N[C@H](CNC(=O)c2cccc3c2C(=O)c2ccccc2-3)[C@@H](O)[C@H](O)[C@@H]1O [Compound II]
EC50 at 72 h [1]: 44 µM
G1/S arrest [2]: 36 µM
Mean Green Fluorescence (GRN-HLog) ([3]; HepG2, 24 hours compound then 48 hours fucose alkyne, Alexa Fluor 488 Azide): 8433
Fold over vehicle ([3]; mean green fluorescence, HepG2): 2.98
G1/S arrest [4]: 93 µM
G1/S arrest [5]: 10 µM
G1/S arrest [6]: 14 µM
EC50 at 72 h ([7]; A549 cells (lung carcinoma)): 29 µM
EC50 at 72 h ([7]; BxPC-3 cells (pancreas carcinoma), BxPC-3, pancreas carcinoma): 43 µM
EC50 at 72 h ([7]; HPH (normal primary hepatocytes), normal primary hepatocyte): > 100 µM
EC50 at 72 h ([7]; HRPTEpiC cells (normal renal)): 72 µM
EC50 at 72 h ([7]; HT-29 cells (colon carcinoma), HT-29, colon carcinoma): 31 µM
EC50 at 72 h ([7]; HT-1080 cells (connective sarcoma), HT-1080, connective sarcoma): 21 µM
EC50 at 72 h ([7]; HUMSC cells (normal mesenchymal stem cells)): 9 µM
EC50 at 72 h ([7]; HUVEC cells (normal endothelium)): 14 µM
EC50 at 72 h ([7]; HeLa cells (cervix carcinoma)): 47 µM
EC50 at 72 h ([7]; K562 cells (blood leukemia)): 98 µM
EC50 at 72 h ([7]; LNCaP cells (prostate carcinoma)): 54 µM
EC50 at 72 h ([7]; MDA-MB-231 cells (breast carcinoma), MDA-MB-231, breast carcinoma): 44 µM
EC50 at 72 h ([7]; NHDF cells (normal skin)): 22 µM
EC50 at 72 h ([7]; SKOV3 cells (ovary carcinoma)): > 100 µM
EC50 at 72 h ([7]; SNU-423 cells (liver carcinoma), SNU-423, liver carcinoma): > 100 µM
EC50 at 72 h ([7]; U-87 MG cells (brain blastoma)): 34 µM
G1/S arrest [8]: 14 µM
G1/S arrest [9]: 70 µM
G1/S arrest [10]: 98 µM
G1/S arrest [11]: 10 µM
Conc. of cmpd II ([12]; IV 1 mg/kg qdx1, 24 h): BQL (Below Quantitation limit <1.0 ng/m1)
